According to the supplement of paper PMC10307832:

Assays:
Experiment in all cases: relative viability (nuclei count vs DMSO), 5 days (fraction); higher = more cells survive
A-427 = test system: A-427
Method in brief: (§1)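 Relative viability was taken as the ratio of nuclei in treated wells to nuclei in vehicle wells. Lung cancer cell lines in 1536-well plates received compounds by pin tool one day after seeding, either one drug alone or a fixed anchor-drug dose plus five library-drug doses (not always all listed) in √10 steps. Nuclei were counted on 4× images after 5 days of treatment, and values are medians of duplicate plates.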

HCC-15 = test system: HCC-15
Method in brief: as §1

HCC-78 = test system: HCC-78
Method in brief: as §1

HOP-62 = test system: HOP-62
Method in brief: as §1

LC-2-ad = test system: LC-2-ad
Method in brief: as §1

LXF-289 = test system: LXF-289
Method in brief: as §1

NCI-H1734 = test system: NCI-H1734
Method in brief: as §1

NCI-H1755 = test system: NCI-H1755
Method in brief: as §1

NCI-H1792 = test system: NCI-H1792
Method in brief: as §1

NCI-H1915 = test system: NCI-H1915
Method in brief: as §1

NCI-H1975 = test system: NCI-H1975
Method in brief: as §1

NCI-H2126 = test system: NCI-H2126
Method in brief: as §1

NCI-H2228 = test system: NCI-H2228
Method in brief: as §1

NCI-H2342 = test system: NCI-H2342
Method in brief: as §1

NCI-H2347 = test system: NCI-H2347
Method in brief: as §1

NCI-H358 = test system: NCI-H358
Method in brief: as §1

NCI-H522 = test system: NCI-H522
Method in brief: as §1

NCI-H647 = test system: NCI-H647
Method in brief: as §1

PC-3 [JPC-3] = test system: PC-3 [JPC-3]
Method in brief: as §1

RERF-LC-KJ = test system: RERF-LC-KJ
Method in brief: as §1

SK-LU-1 = test system: SK-LU-1
Method in brief: as §1

SW 1573 = test system: SW 1573
Method in brief: as §1

O=c1cc(N2CCOCC2)oc2c(-c3cccc4c3sc3ccccc34)cccc12 + O=C(c1cc(Cc2n[nH]c(=O)c3ccccc23)ccc1F)N1CCN(C(=O)C2CC2)CC1 [Olaparib] (partner 8 µM)
relative viability (A-427; first compound 0.01 µM): 0.742 | relative viability (A-427; first compound 0.03162 µM): 0.706 | relative viability (A-427; first compound 0.1 µM): 0.737 | relative viability (A-427; first compound 0.3162 µM): 0.731 | relative viability (A-427; first compound 1 µM): 0.733 | relative viability (HCC-15; first compound 0.01 µM): 0.692 | relative viability (HCC-15; first compound 0.03162 µM): 0.742 | relative viability (HCC-15; first compound 0.1 µM): 0.775 | relative viability (HCC-15; first compound 0.3162 µM): 0.74 | relative viability (HCC-15; first compound 1 µM): 0.735 | relative viability (HCC-78; first compound 0.01 µM): 0.783 | relative viability (HCC-78; first compound 0.03162 µM): 0.687 | relative viability (HCC-78; first compound 0.1 µM): 0.644 | relative viability (HCC-78; first compound 0.3162 µM): 0.835 | relative viability (HCC-78; first compound 1 µM): 0.828 | relative viability (HOP-62; first compound 0.01 µM): 0.441 | relative viability (HOP-62; first compound 0.03162 µM): 0.58 | relative viability (HOP-62; first compound 0.1 µM): 0.409 | relative viability (HOP-62; first compound 0.3162 µM): 0.523 | relative viability (HOP-62; first compound 1 µM): 0.377 | relative viability (LC-2-ad; first compound 0.01 µM): 0.707 | relative viability (LC-2-ad; first compound 0.03162 µM): 0.694 | relative viability (LC-2-ad; first compound 0.1 µM): 0.77 | relative viability (LC-2-ad; first compound 0.3162 µM): 0.764 | relative viability (LC-2-ad; first compound 1 µM): 0.662 | relative viability (LXF-289; first compound 0.01 µM): 1.01 | relative viability (LXF-289; first compound 0.03162 µM): 1.08 | relative viability (LXF-289; first compound 0.1 µM): 1.08 | relative viability (LXF-289; first compound 0.3162 µM): 1.03 | relative viability (LXF-289; first compound 1 µM): 1.11 | relative viability (NCI-H1734; first compound 0.01 µM): 0.686 | relative viability (NCI-H1734; first compound 0.03162 µM): 0.638 | relative viability (NCI-H1734; first compound 0.1 µM): 0.685 | relative viability (NCI-H1734; first compound 0.3162 µM): 0.638 | relative viability (NCI-H1734; first compound 1 µM): 0.652 | relative viability (NCI-H1755; first compound 0.01 µM): 0.896 | relative viability (NCI-H1755; first compound 0.03162 µM): 0.891 | relative viability (NCI-H1755; first compound 0.1 µM): 0.869 | relative viability (NCI-H1755; first compound 0.3162 µM): 0.848 | relative viability (NCI-H1755; first compound 1 µM): 0.883 | relative viability (NCI-H1792; first compound 0.01 µM): 0.445 | relative viability (NCI-H1792; first compound 0.03162 µM): 0.465 | relative viability (NCI-H1792; first compound 0.3162 µM): 0.403 | relative viability (NCI-H1792; first compound 1 µM): 0.405 | relative viability (NCI-H1915; first compound 0.01 µM): 0.258 | relative viability (NCI-H1915; first compound 0.03162 µM): 0.269 | relative viability (NCI-H1915; first compound 0.1 µM): 0.301 | relative viability (NCI-H1915; first compound 0.3162 µM): 0.26 | relative viability (NCI-H1915; first compound 1 µM): 0.262 | relative viability (NCI-H1975; first compound 0.01 µM): 0.834 | relative viability (NCI-H1975; first compound 0.03162 µM): 0.785 | relative viability (NCI-H1975; first compound 0.1 µM): 0.915 | relative viability (NCI-H1975; first compound 0.3162 µM): 0.82 | relative viability (NCI-H1975; first compound 1 µM): 0.809 | relative viability (NCI-H2126; first compound 0.01 µM): 0.887 | relative viability (NCI-H2126; first compound 0.03162 µM): 0.91 | relative viability (NCI-H2126; first compound 0.1 µM): 0.938 | relative viability (NCI-H2126; first compound 0.3162 µM): 0.899 | relative viability (NCI-H2126; first compound 1 µM): 0.918 | relative viability (NCI-H2228; first compound 0.01 µM): 0.646 | relative viability (NCI-H2228; first compound 0.03162 µM): 0.654 | relative viability (NCI-H2228; first compound 0.1 µM): 0.891 | relative viability (NCI-H2228; first compound 0.3162 µM): 0.803 | relative viability (NCI-H2228; first compound 1 µM): 0.571 | relative viability (NCI-H2342; first compound 0.01 µM): 0.418 | relative viability (NCI-H2342; first compound 0.03162 µM): 0.434 | relative viability (NCI-H2342; first compound 0.1 µM): 0.438 | relative viability (NCI-H2342; first compound 0.3162 µM): 0.457 | relative viability (NCI-H2342; first compound 1 µM): 0.428 | relative viability (NCI-H2347; first compound 0.01 µM): 0.597 | relative viability (NCI-H2347; first compound 0.03162 µM): 0.541 | relative viability (NCI-H2347; first compound 0.1 µM): 0.553 | relative viability (NCI-H2347; first compound 0.3162 µM): 0.621 | relative viability (NCI-H2347; first compound 1 µM): 0.551 | relative viability (NCI-H358; first compound 0.01 µM): 0.623 | relative viability (NCI-H358; first compound 0.03162 µM): 0.634 | relative viability (NCI-H358; first compound 0.1 µM): 0.721 | relative viability (NCI-H358; first compound 0.3162 µM): 0.553 | relative viability (NCI-H358; first compound 1 µM): 0.669 | relative viability (NCI-H522; first compound 0.01 µM): 0.59 | relative viability (NCI-H522; first compound 0.03162 µM): 0.696 | relative viability (NCI-H522; first compound 0.1 µM): 0.739 | relative viability (NCI-H522; first compound 0.3162 µM): 0.602 | relative viability (NCI-H522; first compound 1 µM): 0.572 | relative viability (NCI-H647; first compound 0.01 µM): 0.538 | relative viability (NCI-H647; first compound 0.03162 µM): 0.682 | relative viability (NCI-H647; first compound 0.1 µM): 0.524 | relative viability (NCI-H647; first compound 0.3162 µM): 0.655 | relative viability (NCI-H647; first compound 1 µM): 0.592 | relative viability (PC-3 [JPC-3]; first compound 0.01 µM): 1.07 | relative viability (PC-3 [JPC-3]; first compound 0.03162 µM): 1.11 | relative viability (PC-3 [JPC-3]; first compound 0.1 µM): 1.15 | relative viability (PC-3 [JPC-3]; first compound 0.3162 µM): 1.14 | relative viability (PC-3 [JPC-3]; first compound 1 µM): 1.09 | relative viability (RERF-LC-KJ; first compound 0.01 µM): 1.03 | relative viability (RERF-LC-KJ; first compound 0.03162 µM): 0.979 | relative viability (RERF-LC-KJ; first compound 0.1 µM): 0.965 | relative viability (RERF-LC-KJ; first compound 0.3162 µM): 0.703 | relative viability (RERF-LC-KJ; first compound 1 µM): 0.893 | relative viability (SK-LU-1; first compound 0.01 µM): 0.434 | relative viability (SK-LU-1; first compound 0.03162 µM): 0.447 | relative viability (SK-LU-1; first compound 0.1 µM): 0.387 | relative viability (SK-LU-1; first compound 0.3162 µM): 0.52 | relative viability (SK-LU-1; first compound 1 µM): 0.51 | relative viability (SW 1573; first compound 0.01 µM): 0.491 | relative viability (SW 1573; first compound 0.03162 µM): 0.446 | relative viability (SW 1573; first compound 0.1 µM): 0.447 | relative viability (SW 1573; first compound 0.3162 µM): 0.441 | relative viability (SW 1573; first compound 1 µM): 0.466
